These results are taken from patent publication US8815909B2, “Diaminocyclohexane compounds and uses thereof” (Bristol-Myers Squibb Company, priority 2011, dated 2014).

The target in this test is T1, human Y4 receptor (Homo sapiens, UniProt P50391).
T1 construct: expressed in transfected cells
Briefly: NPY4 cAMP HTRF Agonist Assay (inhibitory cAMP assay, Gi activation by Y4 agonism). The format is cell-based. As to the method: NPY4 cAMP HTRF Agonist Assay
The functionality of the compound at Y4 receptor was analyzed using a inhibitory cAMP assay (CISBIO, HTRF cAMP kit #62AM4PEC) to measure the Gi activation by Y4 agonism.
The human Y4 stable CHO clonal cells were maintained in culture medium (F-12 containing 10% Fetal Bovine Serum, […] GENETICIN®, […] Zeocin). Before the experiment, 5 μL of 1 uM Forskolin (Sigma, # F6886) and 100 uM IBMX (Sigma, # I5879) in PBS buffer were added into 384-well plates (PE, Proxi-plate) that were pre-dotted with 100 nL compounds. The cells were removed from the flasks by Cellstripper, counted and adjusted to 1.0×10^6 cells/mL in PBS buffer, and added 5 μL/well (5000 cells/well) into the above 384-well plates. The cells were then covered and incubated for 30 minutes at room temperature. After incubation, 5 μL/well of D2-conjugate in HTRF lysis buffer was first added, followed by adding 5 μL/well of anti-cAMP Cryptate in HTRF lysis buffer. The plates were incubated for another 1 hour at room temperature and read on the EnVision Multilabel Plate Reader.
Compounds described herein were tested in the above assay.
(Time-resolved FRET reads energy transfer from a long-lived donor to a nearby acceptor.)

The mark [1] stands for this setting: human Y4 receptor, cAMP, read-out: hY4 CAMP EC50.
Setting [2] is: human Y4 stable CHO clonal cells, forskolin + IBMX, read-out: NPY4 cAMP HTRF Agonist Assay EC50.
Where [3] appears, read: second TABLE 1, R2 is Phenyl-CF3, read-out: hY4 CAMP EC50.
Setting [4] is: TABLE 2, R2 is Phenyl-CN, read-out: hY4 CAMP EC50.
[5] abbreviates: TABLE 7, R2 is Pyridinyl-oxadiazole-CH3, read-out: hY4 CAMP EC50.

Where a name gives a salt, the structure may show the parent alone. Read-outs that look alike come from different tables or passages of the source.

T1 sequence (P50391 whole entry): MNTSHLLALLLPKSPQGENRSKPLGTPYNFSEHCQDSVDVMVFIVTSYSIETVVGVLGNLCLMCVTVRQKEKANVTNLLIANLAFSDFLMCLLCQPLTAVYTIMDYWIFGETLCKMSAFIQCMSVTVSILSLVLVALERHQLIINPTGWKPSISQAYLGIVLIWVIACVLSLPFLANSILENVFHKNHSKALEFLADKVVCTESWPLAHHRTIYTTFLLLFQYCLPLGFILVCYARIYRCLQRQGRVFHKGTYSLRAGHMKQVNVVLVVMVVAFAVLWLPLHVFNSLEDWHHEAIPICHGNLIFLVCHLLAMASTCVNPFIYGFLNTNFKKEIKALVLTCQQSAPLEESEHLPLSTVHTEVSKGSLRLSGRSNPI

`Cc1nc(-c2ncc(N3CCC[C@H](N[C@@H]4CCCC[C@H]4Nc4cc(-c5ccc(F)cc5F)ccn4)C3)cn2)no1` [Example 468]: the EC50 under setting [1] came out at 9 nM.

`O=[N+]([O-])c1ccc(N2C[C@@H]3C[C@H](N[C@@H]4CCCC[C@H]4Nc4ncc(-c5ccc(O)cc5)o4)[C@H]2C3)cc1` [Example 16, 4-(2-((1R,2R)-2-((1R,4R,6S)-2-(4-Nitrophenyl)-2-azabicyclo[2.2.1]heptan-6-ylamino)cyclohexylamino)oxazol-5-yl)phenol]: under setting [2], the EC50 is 6 nM. As to `Cc1nc2ccc(N3CCC[C@H](N[C@@H]4CCCC[C@H]4Nc4ncc(-c5cccc(C(N)=O)c5)o4)C3)cn2n1` [Example 489], the EC50 under setting [1] is 3 nM.

Turning to `Cn1nnnc1-c1ccc(N2CCC[C@H](N[C@@H]3CCCC[C@H]3Nc3cc(-c4cccc(C(N)=O)c4)ccn3)C2)cc1` [Example 508], the EC50 under setting [1] was 21 nM.

For the compound `FC(F)(F)c1ccc(N2CCC[C@H](N[C@@H]3CCCC[C@H]3Nc3cc(-c4cccc5c4CCNC5)ccn3)C2)cc1` [Example 145], the concentration for a half-maximal effect (EC50) under setting [3] was 905 nM. For `Fc1cc(N2CCC[C@H](N[C@@H]3CCCC[C@H]3Nc3ncc(-c4ccc(OC(F)(F)F)cc4)o3)C2)ccc1C(F)(F)F` [Example 73, (1R,2R)—N1-((S)-1-(3-Fluoro-4-(trifluoromethyl)phenyl)piperidin-3-yl)-N2-(5-(4-(trifluoromethoxy)phenyl)oxazol-2-yl)cyclohexane-1,2-diamine bis-trifluoroacetate], under setting [2], the EC50 came to 83 nM. As to `CC(=O)Nc1cccc(-c2ccnc(N[C@@H]3CCCC[C@H]3N[C@H]3CCCN(c4ccc(C#N)cc4)C3)c2)c1` [Example 251], the EC50 under setting [4] was determined as 1 nM. As for `O=[N+]([O-])c1ccc(N2C[C@@H]3C[C@H](N[C@@H]4CCCC[C@H]4Nc4ncc(-c5ccccc5F)o4)[C@H]2C3)cc1` [Example 15, (1R,2R)—N1-(5-(2-Fluorophenyl)oxazol-2-yl)-N2-((1R,4R,6S)-2-(4-nitrophenyl)-2-azabicyclo[2.2.1]heptan-6-yl)cyclohexane-1,2-diamine], under setting [2], the EC50 was 8 nM.

As to `N#Cc1ccc(N2CCC[C@H](N[C@@H]3CCCC[C@H]3Nc3nccc(-c4ccccc4)n3)C2)cn1` [Example 308], for the setting “TABLE 4, R2 is Pyridinyl-CN, read-out: hY4 CAMP EC50”, the EC50 came to 135 nM. Turning to `CN(C)c1cccc(-c2ccnc(N[C@@H]3CCCC[C@H]3N[C@H]3CCCN(c4ccc(C#N)cc4)C3)c2)c1` [Example 240], the EC50 under setting [4] worked out at 72 nM.

`FC(F)(F)Oc1ccc(-c2cnc(N[C@@H]3CCCC[C@H]3N[C@H]3C[C@@H]4C[C@H]3N(c3ccc(C(F)(F)F)cc3)C4)o2)cc1` [Example 181]: under setting [3], the concentration for a half-maximal effect (EC50) came out at 126 nM.

Consider `CC(C)(C)C(=O)OCc1ccnc(N[C@@H]2CCCC[C@H]2N[C@H]2CCCN(c3ccc(C#N)cc3)C2)c1` [Example 111, (2-(((1R,2R)-2-(((S)-1-(4-cyanophenyl)piperidin-3-yl)amino)cyclohexyl)amino)pyridin-4-yl)methyl pivalate], for which, under setting [2], the EC50 was 562 nM. For the compound `CC(C)(O)c1cccc(-c2ccnc(N[C@@H]3CCCC[C@H]3N[C@H]3CCCN(c4ccc(C#N)cc4)C3)c2)c1` [Example 260], the concentration for a half-maximal effect (EC50) under setting [4] came out at 11 nM. For the compound `O=[N+]([O-])c1ccc(N2CCC[C@H](N[C@@H]3CCCC[C@H]3Nc3ncc(-c4ccccc4F)o3)C2)cc1` [Example 9, (1R,2R)—N1-(5-(2-Fluorophenyl)oxazol-2-yl)-N2-((S)-1-(4-nitrophenyl)piperidin-3-yl)cyclohexane-1,2-diamine], the EC50 under setting [2] amounted to 4 nM.

Consider `N#Cc1ccc(N2CCC[C@H](N[C@@H]3CCCC[C@H]3Nc3cc(-c4ccc(C#N)s4)ccn3)C2)cc1` [Example 273], for which, under setting [4], the EC50 came to 542 nM. Take `Cc1nc(-c2ncc(N3CCC[C@H](N[C@@H]4CCCC[C@H]4Nc4ncc(-c5cccc(C(N)=O)c5)o4)C3)cn2)no1` [Example 390]: under setting [5], the EC50 was determined as 3 nM. For the compound `C[C@]1(N[C@@H]2CCCC[C@H]2Nc2cc(-c3cccc(C(N)=O)c3)ccn2)CCCN(c2ncc(C#N)cn2)C1` [Example 435], the EC50 under setting [1] worked out at 400 nM. Regarding `N#Cc1ccc(N2CCC[C@H](N[C@@H]3CCCC[C@H]3Nc3cc(-c4cccc(C(F)(F)F)c4)ccn3)C2)cc1` [Example 249], the EC50 under setting [4] worked out at 537 nM. As to `O=C(NC1CC1)c1cccc(-c2cnc(N[C@@H]3CCCC[C@H]3N[C@H]3CCCN(c4cnc(C(F)(F)F)nc4)C3)o2)c1` [Example 411], the EC50 under setting [1] came out at 10 nM. On the same count and under the same terms, for `C[C@]1(N[C@@H]2CCCC[C@H]2Nc2cc(-c3cccc(C(N)=O)c3)ccn2)CCCN(c2cnc(C(F)(F)F)cn2)C1` [Example 474] the value was 142 nM; for `COC(=O)Nc1cccc(-c2cnc(N[C@@H]3CCCC[C@H]3N[C@H]3CCCN(c4cnc(C(F)(F)F)cn4)C3)o2)c1` [Example 427], 1 nM.

Regarding `CS(=O)(=O)Nc1cccc(-c2ccnc(N[C@@H]3CCCC[C@H]3N[C@H]3CCCN(c4ccc(C#N)cc4)C3)c2)c1` [Example 242], the EC50 under setting [4] was determined as 3 nM.

`Cc1nc(-c2ccc(N3C[C@@H]4C[C@H](N[C@@H]5CCCC[C@H]5Nc5ncc(-c6ccc(OC(F)(F)F)cc6)o5)[C@H]3C4)cc2)no1` [Example 351]: the EC50 under setting [1] turned out to be 448 nM. `FC(F)(F)c1ccc(N2CCC[C@H](N[C@@H]3CCCC[C@H]3Nc3ncc(-c4ccccc4)s3)C2)cc1` [Example 72, (1R,2R)—N1-(5-Phenylthiazol-2-yl)-N2-((S)-1-(4-(trifluoromethyl)phenyl)piperidin-3-yl)cyclohexane-1,2-diamine]: the EC50 under setting [2] was found to be 15 nM. For the compound `C[C@]1(N[C@@H]2CCCC[C@H]2Nc2ncc(-c3cccc(C(N)=O)c3)o2)CCCN(c2ncc(C#N)cn2)C1` [Example 432], the EC50 under setting [1] came to 29 nM. The same measure, in the same setting: for `Cc1nc2ccc(N3CCC[C@H](N[C@@H]4CCCC[C@H]4Nc4ncc(-c5cc(F)c(F)cc5F)o4)C3)cn2n1` [Example 497] the value was 46 nM. The same measure, in the same setting: the value for `O=C(NC1CC1)c1cccc(-c2cnc(N[C@@H]3CCCC[C@H]3N[C@H]3CCCN(c4ccc5ncnn5c4)C3)o2)c1` [Example 486] was 78 nM.

Consider `N#Cc1ccc(N2CCC[C@H](N[C@@H]3CCCC[C@H]3Nc3nnc(-c4ccccc4)o3)C2)cc1` [Example 54, 4-((S)-3-((1R,2R)-2-(5-Phenyl-1,3,4-oxadiazol-2-ylamino)cyclohexylamino)piperidin-1-yl)benzonitrile trifluoroacetate], for which, under setting [2], the EC50 was 272 nM.

Take `Cc1nc(-c2ccc(N3CCC[C@H](N[C@@H]4CCCC[C@H]4Nc4nccc(-c5ccccc5)n4)C3)cn2)no1` [Example 395]: the EC50 under setting [5] stood at 5 nM. Regarding `Cc1nc(-c2ncc(N3CCC[C@H](N[C@@H]4CCCC[C@H]4Nc4cc(C#N)ccn4)C3)cn2)no1` [Example 469], under setting [1], the EC50 came out at 96 nM. On the same count and under the same terms, for `COC(=O)Nc1cccc(-c2ccnc(N[C@@H]3CCCC[C@H]3N[C@H]3CCCN(c4ccc(-c5cccnc5)cc4)C3)c2)c1` [Example 514] the value was 4 nM. For `CN(C)C(=O)c1cccc(-c2cnc(N[C@@H]3CCCC[C@H]3N[C@H]3CCCN(c4ccc(C(F)(F)F)cc4)C3)o2)c1` [Example 123], under setting [3], the EC50 came to 234 nM.

`N#Cc1ccc(N2CC3CC2[C@@H](N[C@@H]2CCCC[C@H]2Nc2ncc(-c4ccc(OC(F)F)cc4)o2)C3)cc1` (stereo partly shown) [Example 229]: the EC50 under setting [4] is 3 nM.

On to `CC(C)(C)OC(=O)Nc1cccc(-c2cnc(N[C@@H]3CCCC[C@H]3N[C@H]3CCCN(c4cnc(C(F)(F)F)nc4)C3)o2)c1` [Example 410], for which, under setting [1], the EC50 stood at 320 nM. The same measure, in the same setting: for `CCOC(=O)Nc1cccc(-c2cnc(N[C@@H]3CCCC[C@H]3N[C@H]3CCCN(c4ccc(-c5noc(C)n5)cc4)C3)o2)c1` [Example 340] the value was 3 nM. For `CC(C)(C)c1cccc(-c2ccnc(N[C@@H]3CCCC[C@H]3N[C@H]3CCCN(c4ccc(C(F)(F)F)cc4)C3)c2)c1` [Example 155], the EC50 under setting [3] amounted to 235 nM. As for `Cc1nc2ccc(N3CCC[C@H](N[C@@H]4CCCC[C@H]4Nc4ncc(-c5cccc(C(=O)NC6CC6)c5)o4)C3)cn2n1` [Example 494], the EC50 under setting [1] worked out at 42 nM. Still for that read-out and setting: for `Cc1nnc(-c2ccc(N3CCCC(N[C@@H]4CCCC[C@H]4Nc4cc(-c5ccc(O)cc5)ccn4)C3)cc2)o1` (stereo partly shown) [Example 370] the value was 3 nM. Regarding `OCC#Cc1ccnc(N[C@@H]2CCCC[C@H]2N[C@H]2CCCN(c3ccc(C(F)(F)F)cc3)C2)c1` [Example 163], the EC50 under setting [3] came out at 74 nM. Same read-out and setting: for `NC(=O)c1cccc(-c2ccnc(N[C@@H]3CCCC[C@H]3N[C@H]3C[C@@H]4C[C@H]3N(c3ccc(C(F)(F)F)cc3)C4)c2)c1` [Example 179] the value was 7 nM. Regarding `C[C@]1(N[C@@H]2CCCC[C@H]2Nc2cc(-c3cccc(C(N)=O)c3)ccn2)CCCN(c2ccc(C(F)(F)F)nc2)C1` [Example 323], the EC50 (TABLE 5, R2 is Pyridinyl-CF3, read-out: hY4 CAMP EC50) worked out at 17 nM. As to `NC(=O)c1cccc(-c2ccnc(N[C@@H]3CCCC[C@H]3N[C@H]3CCCN(c4ccc(-c5ncon5)cc4)C3)c2)c1` [Example 376], the EC50 under setting [1] stood at 15 nM.

Take `O=[N+]([O-])c1ccc(N2C[C@@H]3C[C@H](N[C@@H]4CCCC[C@H]4Nc4cc(-c5ccc(OC(F)(F)F)cc5)ncn4)[C@H]2C3)cc1` [Example 296]: for the setting “TABLE 3, R2 is Phenyl-NO2, read-out: hY4 CAMP EC50”, the EC50 worked out at 68 nM.

The EC50 is the midpoint of the concentration-response curve.
